# Results reported in the kinase profiling compilation of Christmann-Franck et al. (2016).
# Assays:
# Assay in all cases: KINOMEscan competition binding
# Details in all cases: compound 10.0 µM
# RPS6KA5 KD1 (human) = RPS6KA5 KD1 (human) (UniProt O75582)
# STK32B (human) = STK32B (human) (UniProt Q9NY57)
# PAK4 (human) = PAK4 (human) (UniProt O96013)
# MYLK (human) = MYLK (human) (UniProt Q15746)
# [1] = biological target: TYK2 JH1 catalytic (human) (UniProt P29597)
# TEC (human) = TEC (human) (UniProt P42680)
# PRKCH (human) = PRKCH (human) (UniProt P24723)
# ADCK4 (human) = ADCK4 (human) (UniProt Q96D53)
# MARK4 (human) = MARK4 (human) (UniProt Q96L34)
# CAMK1D (human) = CAMK1D (human) (UniProt Q8IU85)
# TAOK3 (human) = TAOK3 (human) (UniProt Q9H2K8)
# SRPK2 (human) = SRPK2 (human) (UniProt P78362)
# NTRK3 (human) = NTRK3 (human) (UniProt Q16288)
# DCLK3 (human) = DCLK3 (human) (UniProt Q9C098)
# MAP4K2 (human) = MAP4K2 (human) (UniProt Q12851)
# LTK (human) = LTK (human) (UniProt P29376)
# FGFR1 (human) = FGFR1 (human) (UniProt P11362)
# MUSK (human) = MUSK (human) (UniProt O15146)
# [2] = biological target: JAK2 JH1 catalytic (human) (UniProt O60674)
# PRKG2 (human) = PRKG2 (human) (UniProt Q13237)
# MAPK8 (human) = MAPK8 (human) (UniProt P45983)
# ITK (human) = ITK (human) (UniProt Q08881)
# PHKG1 (human) = PHKG1 (human) (UniProt Q16816)
# EPHA3 (human) = EPHA3 (human) (UniProt P29320)
# NLK (human) = NLK (human) (UniProt Q9UBE8)
# TESK1 (human) = TESK1 (human) (UniProt Q15569)
# [3] = tested on: ABL1 (human), P00519 [M351T]
# [4] = tested on: KIT (human), P10721 [D816V]
# PRKG1 (human) = PRKG1 (human) (UniProt Q13976)
# MAP3K12 (human) = MAP3K12 (human) (UniProt Q12852)
# TNK1 (human) = TNK1 (human) (UniProt Q13470)
# PTK2B (human) = PTK2B (human) (UniProt Q14289)
# FGFR3 (human) = FGFR3 (human) (UniProt P22607)
# MAPK15 (human) = MAPK15 (human) (UniProt Q8TD08)
# MAP4K1 (human) = MAP4K1 (human) (UniProt Q92918)
# CDK19 (human) = CDK19 (human) (UniProt Q9BWU1)
# MYLK2 (human) = MYLK2 (human) (UniProt Q9H1R3)
# AKT2 (human) = AKT2 (human) (UniProt P31751)
# SIK1 (human) = SIK1 (human) (UniProt P57059)
# HCK (human) = HCK (human) (UniProt P08631)
# Chain of HCK (human) (P08631 whole entry, looked up): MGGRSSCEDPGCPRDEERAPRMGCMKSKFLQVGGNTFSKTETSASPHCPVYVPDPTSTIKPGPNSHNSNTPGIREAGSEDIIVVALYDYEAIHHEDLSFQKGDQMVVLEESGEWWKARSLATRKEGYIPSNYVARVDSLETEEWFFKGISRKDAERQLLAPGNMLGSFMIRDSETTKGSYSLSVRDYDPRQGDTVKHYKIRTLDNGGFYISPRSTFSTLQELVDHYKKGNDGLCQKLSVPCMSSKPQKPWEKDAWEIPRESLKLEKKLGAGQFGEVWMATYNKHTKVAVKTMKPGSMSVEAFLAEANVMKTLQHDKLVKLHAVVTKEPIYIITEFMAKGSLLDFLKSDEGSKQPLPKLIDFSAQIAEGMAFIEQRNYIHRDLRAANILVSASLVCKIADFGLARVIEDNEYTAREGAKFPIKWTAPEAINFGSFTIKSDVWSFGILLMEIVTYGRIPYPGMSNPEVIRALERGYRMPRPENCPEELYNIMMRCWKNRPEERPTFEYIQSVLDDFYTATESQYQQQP
# Chain of MARK4 (human) (Q96L34 whole entry, looked up): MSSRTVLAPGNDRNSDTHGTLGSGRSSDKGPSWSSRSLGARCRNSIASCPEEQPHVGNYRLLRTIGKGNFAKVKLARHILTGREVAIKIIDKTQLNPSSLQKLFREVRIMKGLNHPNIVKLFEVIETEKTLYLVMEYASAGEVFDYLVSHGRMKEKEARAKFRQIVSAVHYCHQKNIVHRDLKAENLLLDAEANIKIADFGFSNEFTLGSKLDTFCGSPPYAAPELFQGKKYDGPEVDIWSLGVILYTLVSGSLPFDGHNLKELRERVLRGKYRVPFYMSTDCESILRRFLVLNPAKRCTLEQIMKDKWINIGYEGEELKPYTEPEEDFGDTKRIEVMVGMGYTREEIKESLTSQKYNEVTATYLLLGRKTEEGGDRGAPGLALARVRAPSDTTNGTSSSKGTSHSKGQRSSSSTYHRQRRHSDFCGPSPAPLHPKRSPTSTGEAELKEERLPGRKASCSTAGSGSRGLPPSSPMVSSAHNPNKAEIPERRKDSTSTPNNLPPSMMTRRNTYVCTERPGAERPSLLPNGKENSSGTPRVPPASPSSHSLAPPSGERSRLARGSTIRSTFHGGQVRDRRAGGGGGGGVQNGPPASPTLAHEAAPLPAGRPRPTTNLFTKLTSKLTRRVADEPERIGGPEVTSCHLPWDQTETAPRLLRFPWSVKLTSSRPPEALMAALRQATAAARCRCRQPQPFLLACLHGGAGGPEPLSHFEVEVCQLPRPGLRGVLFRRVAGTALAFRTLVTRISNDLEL
# Chain of TAOK3 (human) (Q9H2K8 whole entry, looked up): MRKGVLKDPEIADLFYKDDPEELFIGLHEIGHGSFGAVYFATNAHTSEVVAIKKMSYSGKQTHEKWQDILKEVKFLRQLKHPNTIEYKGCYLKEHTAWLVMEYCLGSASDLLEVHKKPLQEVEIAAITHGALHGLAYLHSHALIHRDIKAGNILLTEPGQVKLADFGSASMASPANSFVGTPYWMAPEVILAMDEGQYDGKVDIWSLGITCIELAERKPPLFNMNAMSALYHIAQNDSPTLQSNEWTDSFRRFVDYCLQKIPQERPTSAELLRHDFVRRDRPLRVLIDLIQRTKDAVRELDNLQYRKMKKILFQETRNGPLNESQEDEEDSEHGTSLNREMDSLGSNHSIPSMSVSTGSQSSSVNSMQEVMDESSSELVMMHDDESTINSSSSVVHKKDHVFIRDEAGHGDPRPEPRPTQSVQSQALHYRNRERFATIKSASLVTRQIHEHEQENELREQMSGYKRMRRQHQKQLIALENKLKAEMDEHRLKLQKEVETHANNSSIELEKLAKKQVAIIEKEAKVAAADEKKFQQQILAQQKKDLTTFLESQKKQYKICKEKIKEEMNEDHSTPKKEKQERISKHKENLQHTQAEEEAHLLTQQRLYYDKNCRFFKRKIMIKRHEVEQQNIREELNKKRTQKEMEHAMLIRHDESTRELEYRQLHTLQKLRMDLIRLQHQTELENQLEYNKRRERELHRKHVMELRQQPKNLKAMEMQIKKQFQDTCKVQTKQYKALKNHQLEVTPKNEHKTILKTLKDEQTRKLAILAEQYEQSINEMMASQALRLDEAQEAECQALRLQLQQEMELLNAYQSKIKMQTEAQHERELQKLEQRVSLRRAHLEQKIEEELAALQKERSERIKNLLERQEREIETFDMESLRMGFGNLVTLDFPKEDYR
# Chain of AKT2 (human) (P31751 whole entry, looked up): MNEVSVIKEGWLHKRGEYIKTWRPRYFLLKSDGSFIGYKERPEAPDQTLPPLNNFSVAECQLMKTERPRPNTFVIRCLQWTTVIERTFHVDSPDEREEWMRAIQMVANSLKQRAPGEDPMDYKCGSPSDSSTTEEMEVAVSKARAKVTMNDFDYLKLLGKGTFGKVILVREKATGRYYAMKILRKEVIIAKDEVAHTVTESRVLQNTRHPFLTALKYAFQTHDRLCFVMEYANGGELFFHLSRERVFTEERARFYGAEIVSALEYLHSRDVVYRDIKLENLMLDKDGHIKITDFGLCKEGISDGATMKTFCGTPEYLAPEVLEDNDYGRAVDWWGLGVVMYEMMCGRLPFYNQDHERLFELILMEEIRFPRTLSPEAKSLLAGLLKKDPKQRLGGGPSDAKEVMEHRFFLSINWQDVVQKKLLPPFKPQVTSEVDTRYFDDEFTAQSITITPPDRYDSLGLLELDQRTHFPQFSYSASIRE
# Chain of PAK4 (human) (O96013 whole entry, looked up): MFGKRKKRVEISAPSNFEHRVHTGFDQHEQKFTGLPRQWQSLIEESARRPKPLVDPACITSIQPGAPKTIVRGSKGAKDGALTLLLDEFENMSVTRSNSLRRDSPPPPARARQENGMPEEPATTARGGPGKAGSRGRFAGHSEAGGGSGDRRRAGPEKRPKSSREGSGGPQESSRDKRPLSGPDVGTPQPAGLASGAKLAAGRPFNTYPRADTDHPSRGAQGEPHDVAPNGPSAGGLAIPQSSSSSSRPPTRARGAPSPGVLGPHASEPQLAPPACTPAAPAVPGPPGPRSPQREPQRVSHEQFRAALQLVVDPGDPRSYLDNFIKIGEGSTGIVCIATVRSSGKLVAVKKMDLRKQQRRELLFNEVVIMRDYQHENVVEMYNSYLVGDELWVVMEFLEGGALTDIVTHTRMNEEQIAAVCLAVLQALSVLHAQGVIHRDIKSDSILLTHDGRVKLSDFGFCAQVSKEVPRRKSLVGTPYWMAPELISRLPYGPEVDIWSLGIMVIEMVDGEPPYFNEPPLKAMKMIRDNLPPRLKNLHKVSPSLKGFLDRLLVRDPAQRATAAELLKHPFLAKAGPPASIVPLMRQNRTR
# Chain of NTRK3 (human) (Q16288 whole entry, looked up): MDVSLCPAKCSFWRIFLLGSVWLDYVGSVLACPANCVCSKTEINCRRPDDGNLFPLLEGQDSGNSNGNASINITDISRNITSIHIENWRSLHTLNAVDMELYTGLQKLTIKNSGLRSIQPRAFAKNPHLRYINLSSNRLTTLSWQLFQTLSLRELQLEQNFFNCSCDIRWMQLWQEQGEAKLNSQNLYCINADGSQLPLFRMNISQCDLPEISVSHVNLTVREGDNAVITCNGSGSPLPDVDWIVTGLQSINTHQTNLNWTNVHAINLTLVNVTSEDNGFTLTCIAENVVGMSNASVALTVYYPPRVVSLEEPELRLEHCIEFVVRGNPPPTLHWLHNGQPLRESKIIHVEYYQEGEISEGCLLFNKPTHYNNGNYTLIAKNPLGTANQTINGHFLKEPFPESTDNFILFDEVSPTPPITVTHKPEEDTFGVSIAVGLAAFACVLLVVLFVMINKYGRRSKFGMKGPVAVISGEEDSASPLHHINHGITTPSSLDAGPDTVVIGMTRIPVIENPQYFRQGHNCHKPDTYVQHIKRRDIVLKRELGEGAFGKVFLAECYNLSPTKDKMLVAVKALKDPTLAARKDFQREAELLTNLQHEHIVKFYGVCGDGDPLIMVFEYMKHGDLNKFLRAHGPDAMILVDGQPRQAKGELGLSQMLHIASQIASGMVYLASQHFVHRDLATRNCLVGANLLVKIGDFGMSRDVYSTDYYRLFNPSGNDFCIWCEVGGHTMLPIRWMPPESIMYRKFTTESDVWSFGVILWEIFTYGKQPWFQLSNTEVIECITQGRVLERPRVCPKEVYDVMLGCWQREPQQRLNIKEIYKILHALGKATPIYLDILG
# Chain of PRKG2 (human) (Q13237 whole entry, looked up): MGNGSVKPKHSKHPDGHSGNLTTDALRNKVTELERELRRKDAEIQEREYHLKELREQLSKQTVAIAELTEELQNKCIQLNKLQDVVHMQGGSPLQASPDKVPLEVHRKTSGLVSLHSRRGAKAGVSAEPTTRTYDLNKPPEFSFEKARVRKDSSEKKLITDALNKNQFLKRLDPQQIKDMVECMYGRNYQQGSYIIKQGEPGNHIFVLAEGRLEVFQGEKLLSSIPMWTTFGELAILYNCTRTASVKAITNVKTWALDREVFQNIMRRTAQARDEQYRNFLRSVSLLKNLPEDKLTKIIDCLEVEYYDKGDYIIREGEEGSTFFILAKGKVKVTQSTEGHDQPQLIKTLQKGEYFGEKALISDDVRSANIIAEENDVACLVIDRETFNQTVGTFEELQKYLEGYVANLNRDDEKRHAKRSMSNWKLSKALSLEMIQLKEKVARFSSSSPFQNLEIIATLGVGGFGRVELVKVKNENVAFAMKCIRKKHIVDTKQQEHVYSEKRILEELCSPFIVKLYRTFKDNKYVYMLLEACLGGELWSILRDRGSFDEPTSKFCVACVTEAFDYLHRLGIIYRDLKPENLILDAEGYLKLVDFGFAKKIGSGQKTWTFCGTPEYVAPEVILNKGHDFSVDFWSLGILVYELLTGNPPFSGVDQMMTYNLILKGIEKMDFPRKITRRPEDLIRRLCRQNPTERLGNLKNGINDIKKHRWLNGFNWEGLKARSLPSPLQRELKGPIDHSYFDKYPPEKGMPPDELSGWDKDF
SMILES,"kinase still bound, per cent of control (RPS6KA5 KD1 (human))","kinase still bound, per cent of control (STK32B (human))","kinase still bound, per cent of control (PAK4 (human))","kinase still bound, per cent of control (MYLK (human))","kinase still bound, per cent of control [1]","kinase still bound, per cent of control (TEC (human))","kinase still bound, per cent of control (PRKCH (human))","kinase still bound, per cent of control (ADCK4 (human))","kinase still bound, per cent of control (MARK4 (human))","kinase still bound, per cent of control (CAMK1D (human))","kinase still bound, per cent of control (TAOK3 (human))","kinase still bound, per cent of control (SRPK2 (human))","kinase still bound, per cent of control (NTRK3 (human))","kinase still bound, per cent of control (DCLK3 (human))","kinase still bound, per cent of control (MAP4K2 (human))","kinase still bound, per cent of control (LTK (human))","kinase still bound, per cent of control (FGFR1 (human))","kinase still bound, per cent of control (MUSK (human))","kinase still bound, per cent of control [2]","kinase still bound, per cent of control (PRKG2 (human))",further results
O=C(NC1CC1)c1cccc(-c2ccc3c(NC(=O)C4CC4)n[nH]c3c2)c1,100%,100%,79%,63%,40%,95%,100%,88%,96%,100%,33%,58%,44%,100%,99%,100%,100%,91%,18%,72%,"kinase still bound, per cent of control (MAPK8 (human)): 40%; kinase still bound, per cent of control (ITK (human)): 100%; kinase still bound, per cent of control (PHKG1 (human)): 76%; kinase still bound, per cent of control (EPHA3 (human)): 64%; kinase still bound, per cent of control (NLK (human)): 31%; kinase still bound, per cent of control (TESK1 (human)): 100%; kinase still bound, per cent of control [3]: 57%; kinase still bound, per cent of control [4]: 97%; kinase still bound, per cent of control (PRKG1 (human)): 100%; kinase still bound, per cent of control (MAP3K12 (human)): 30%; kinase still bound, per cent of control (TNK1 (human)): 100%; kinase still bound, per cent of control (PTK2B (human)): 100%; kinase still bound, per cent of control (FGFR3 (human)): 100%; kinase still bound, per cent of control (MAPK15 (human)): 2.9%; kinase still bound, per cent of control (MAP4K1 (human)): 68%; kinase still bound, per cent of control (CDK19 (human)): 79%; kinase still bound, per cent of control (MYLK2 (human)): 12%; kinase still bound, per cent of control (AKT2 (human)): 91%; kinase still bound, per cent of control (SIK1 (human)): 84%; kinase still bound, per cent of control (HCK (human)): 100%"
C=CC(=O)Nc1cccc(Nc2nc(N[C@H]3CC[C@H](N(C)C)CC3)nc3c2ncn3C(C)C)c1,93%,100%,17%,55%,34%,100%,91%,94%,94%,67%,28%,92%,28%,86%,31%,88%,76%,84%,9.1%,96%,"kinase still bound, per cent of control (MAPK8 (human)): 100%; kinase still bound, per cent of control (ITK (human)): 65%; kinase still bound, per cent of control (PHKG1 (human)): 57%; kinase still bound, per cent of control (EPHA3 (human)): 54%; kinase still bound, per cent of control (NLK (human)): 96%; kinase still bound, per cent of control (TESK1 (human)): 93%; kinase still bound, per cent of control [3]: 71%; kinase still bound, per cent of control [4]: 10%; kinase still bound, per cent of control (PRKG1 (human)): 100%; kinase still bound, per cent of control (MAP3K12 (human)): 71%; kinase still bound, per cent of control (TNK1 (human)): 100%; kinase still bound, per cent of control (PTK2B (human)): 51%; kinase still bound, per cent of control (FGFR3 (human)): 68%; kinase still bound, per cent of control (MAPK15 (human)): 75%; kinase still bound, per cent of control (MAP4K1 (human)): 74%; kinase still bound, per cent of control (CDK19 (human)): 100%; kinase still bound, per cent of control (MYLK2 (human)): 90%; kinase still bound, per cent of control (AKT2 (human)): 84%; kinase still bound, per cent of control (SIK1 (human)): 85%; kinase still bound, per cent of control (HCK (human)): 27%"
Nc1ccc(-c2ccc3ncc4ccc(=O)n(-c5cccc(C(F)(F)F)c5)c4c3c2)cn1,100%,100%,100%,95%,85%,100%,99%,77%,100%,100%,80%,100%,100%,100%,68%,100%,95%,100%,64%,89%,"kinase still bound, per cent of control (MAPK8 (human)): 60%; kinase still bound, per cent of control (ITK (human)): 100%; kinase still bound, per cent of control (PHKG1 (human)): 100%; kinase still bound, per cent of control (EPHA3 (human)): 86%; kinase still bound, per cent of control (NLK (human)): 86%; kinase still bound, per cent of control (TESK1 (human)): 94%; kinase still bound, per cent of control [3]: 100%; kinase still bound, per cent of control [4]: 61%; kinase still bound, per cent of control (PRKG1 (human)): 83%; kinase still bound, per cent of control (MAP3K12 (human)): 100%; kinase still bound, per cent of control (TNK1 (human)): 100%; kinase still bound, per cent of control (PTK2B (human)): 86%; kinase still bound, per cent of control (FGFR3 (human)): 75%; kinase still bound, per cent of control (MAPK15 (human)): 18%; kinase still bound, per cent of control (MAP4K1 (human)): 100%; kinase still bound, per cent of control (CDK19 (human)): 100%; kinase still bound, per cent of control (MYLK2 (human)): 100%; kinase still bound, per cent of control (AKT2 (human)): 100%; kinase still bound, per cent of control (SIK1 (human)): 79%; kinase still bound, per cent of control (HCK (human)): 100%"
